One assay addresses T1, Rat M4 (Rattus norvegicus, UniProt P08485).
T1 construct: expressed in transfected cells; host or cells: CHO-K1 (ATCC), stably co-expressing chimeric G protein Gqi5
T1 sequence (P08485 1-478): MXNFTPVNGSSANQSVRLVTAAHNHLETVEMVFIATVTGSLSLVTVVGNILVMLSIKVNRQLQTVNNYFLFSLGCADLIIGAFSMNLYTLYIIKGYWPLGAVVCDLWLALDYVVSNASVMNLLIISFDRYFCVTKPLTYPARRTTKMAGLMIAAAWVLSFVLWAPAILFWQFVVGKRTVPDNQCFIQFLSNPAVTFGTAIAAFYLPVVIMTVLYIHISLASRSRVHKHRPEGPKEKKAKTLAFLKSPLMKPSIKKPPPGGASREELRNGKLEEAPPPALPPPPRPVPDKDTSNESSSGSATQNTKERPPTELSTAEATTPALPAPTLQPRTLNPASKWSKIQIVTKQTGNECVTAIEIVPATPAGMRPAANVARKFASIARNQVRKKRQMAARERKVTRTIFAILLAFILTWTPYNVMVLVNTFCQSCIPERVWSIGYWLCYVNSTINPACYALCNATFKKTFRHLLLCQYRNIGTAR
Description: mAChR M4 cell-based functional assay (calcium flux, antagonist mode vs EC80 acetylcholine), rat M4/Gqi5/CHO-K1 cells. The following applies: for remaining activity at 30 µM: CHO-K1, % ACh maximum at 30 μM, rat M4, read-out: Rat M4 Emin (%); for pIC50: decrease of response elicited by EC80 acetylcholine, rat M4/Gqi5 CHO-K1 cells. On the procedure:
(§1) Human or rat M4 cDNA, along with the chimeric G protein Gqi5, were transfected into Chinese hamster ovary (CHO-K1) cells purchased from the American Type Culture Collection using Lipofectamine2000. M4/Gqi5/CHO cells were grown in Ham's F-12 medium containing 10% heat-inactivated fetal bovine serum (FBS), 20 mM HEPES, 500 μg/mL G418 sulfate, and 200 μg/mL Hygromycin B.
(§2) For high throughput measurement of agonist-evoked increases in intracellular calcium, CHO-K1 cells stably expressing muscarinic receptors were plated in growth medium lacking G418 and hygromycin at 15,000 cells/20 μL/well in Greiner 384-well black-walled, tissue culture (TC)-treated, clear-bottom plates (VWR). Cells were incubated overnight at 37° C. and 5% CO2. The next day, cells were washed using an ELX 405 (BioTek) with assay buffer; the final volume was then aspirated to 20 μL. Next, 20 μL of a 2.3 μM stock of Fluo-4/acetoxymethyl ester (Invitrogen, Carlsbad, Calif.), prepared as a 2.3 mM stock in DMSO and mixed in a 1:1 ratio with 10% (w/v) Pluronic F-127 and diluted in assay buffer, was added to the wells and the cell plates were incubated for 50 min at 37° C. and 5% CO2. Dye was removed by washing with the ELX 405 and the final volume was aspirated to 20 μL. Compound master plates were formatted in a 10 point concentration-response curve (CRC) format (1:3 dilutions) in 100% DMSO with a starting concentration of 10 or 1 mM using a BRAVO liquid handler (Agilent). Test compound CRCs were then transferred to daughter plates (240 nL) using the Echo acoustic plate reformatter (Labcyte, Sunnyvale, Calif.) and then diluted into assay buffer (40 μL) to a 2× stock using a Thermo Fisher Combi (Thermo Fisher Scientific, Waltham, Mass.).
(§3) Calcium flux was measured using the Functional Drug Screening System (FDSS) 6000 or 7000 (Hamamatsu Corporation, Tokyo, Japan) as an increase in the fluorescent static ratio. Compounds were applied to cells (20 μL, 2×) using the automated system of the FDSS at 2 seconds into the protocol and the data were collected at 1 Hz. At 143 s, 10 μL of an EC20 concentration of the muscarinic receptor agonist acetylcholine was added (5×), followed by the addition of 12 μL of an EC80 concentration of acetylcholine at the 268 s time point (5×). Agonist activity was analyzed as a concentration-dependent increase in calcium mobilization upon compound addition. Positive allosteric modulator activity was analyzed as a concentration-dependent increase in the EC20 acetylcholine response. Antagonist activity was analyzed as a concentration-dependent decrease in the EC80 acetylcholine response; for the purposes of the tables herein, an IC50 (inhibitory concentration 50) was calculated as a concentration-dependent decrease of the response elicited by an EC80 concentration of acetylcholine. Concentration-response curves were generated using a four-parameter logistical equation in XLFit curve fitting software (IDBS, Bridgewater, N.J.) for Excel (Microsoft, Redmond, Wash.) or Prism (GraphPad Software, Inc., San Diego, Calif.) or the Dotmatics software platform (Dotmatics, Bishop's Stortford, UK).
(§4) Compounds were synthesized as described above. Activity (IC50 and Emin) was determined in the mAChR M4 cell-based functional assay as described above and the data are shown in Table 2.
On the technique in general: Calcium assays in cells follow changes in intracellular calcium, usually with a dye or a luminescent sensor.

A further assay deals with T2, Human M4 (Homo sapiens, UniProt P08173).
T2 construct: expressed in transfected cells; host or cells: CHO-K1 (ATCC), stably co-expressing chimeric G protein Gqi5
T2 sequence (P08173 1-479): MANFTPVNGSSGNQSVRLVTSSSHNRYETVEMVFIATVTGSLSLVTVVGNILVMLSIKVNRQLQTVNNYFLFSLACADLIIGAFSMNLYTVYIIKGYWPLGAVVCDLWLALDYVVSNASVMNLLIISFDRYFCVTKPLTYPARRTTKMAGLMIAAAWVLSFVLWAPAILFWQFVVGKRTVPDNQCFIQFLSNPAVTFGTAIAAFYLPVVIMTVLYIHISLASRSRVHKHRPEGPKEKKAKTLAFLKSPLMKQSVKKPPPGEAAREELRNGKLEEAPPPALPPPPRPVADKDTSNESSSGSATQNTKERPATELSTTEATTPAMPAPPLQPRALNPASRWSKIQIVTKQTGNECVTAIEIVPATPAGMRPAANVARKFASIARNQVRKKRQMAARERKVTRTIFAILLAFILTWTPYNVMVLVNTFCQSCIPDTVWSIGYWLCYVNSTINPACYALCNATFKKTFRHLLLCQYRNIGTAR
Kind of assay: mAChR M4 cell-based functional assay (calcium flux, antagonist mode vs EC80 acetylcholine), human M4/Gqi5/CHO-K1 cells. The following applies: for remaining activity at 30 µM: CHO-K1, % ACh maximum at 30 μM, human M4, read-out: Human M4 Emin (%); for pIC50: decrease of response elicited by EC80 acetylcholine, human M4/Gqi5 CHO-K1 cells. On the procedure: as §1, §2, §3, §4

pIC50: −log10 of the molar value.

The term pIC50 denotes the IC50 on a negative log10 scale, so that one unit is a factor of ten. As for `O=S(=O)(c1ccccc1)c1ccc(N[C@H]2C[C@@H]3CN(Cc4ccccn4)C[C@@H]3C2)nn1` [compound 25, (3aR,5s,6aS)-N-(6-(phenylsulfonyl)pyridazin-3-yl)-2-(pyridin-2-ylmethyl)octahydrocyclopenta[c]pyrrol-5-amine], the remaining activity at 30 µM on Rat M4 turned out to be 26%; on Human M4 it was 6%. For the same compound, the pIC50 was less than 5.00 at Rat M4 and 6.36 at Human M4.
Turning to `O=S(=O)(c1ccccc1)c1ccc(N[C@H]2C[C@@H]3CN(Cc4ccc5c(c4)OC(F)(F)O5)C[C@@H]3C2)nn1` [compound 26, (3aR,5s,6aS)-2-((2,2-difluorobenzo[d][1,3]dioxol-5-yl)methyl)-N-(6-(phenylsulfonyl)pyridazin-3-yl)octahydrocyclopenta[c]pyrrol-5-amine], on Rat M4, the remaining activity at 30 µM was found to be 14% and the pIC50 was 5.52. On Human M4, the remaining activity at 30 µM was found to be 3% and the pIC50 was 6.00.
For the compound `O=S(=O)(c1ccccc1)c1ccc(N[C@H]2C[C@@H]3CN(Cc4ccc5c(c4)OCO5)C[C@@H]3C2)nn1` [compound 27, (3aR,5s,6aS)-2-(benzo[d][1,3]dioxol-5-ylmethyl)-N-(6-(phenylsulfonyl)pyridazin-3-yl)octahydrocyclopenta[c]pyrrol-5-amine], on Rat M4, the remaining activity at 30 µM was 4% and the pIC50 is 6.10. Further, on Human M4, the remaining activity at 30 µM came out at 2% and the pIC50 was 7.89.
For `[O-][S+](c1ccccc1)c1ccc(N[C@H]2C[C@@H]3CN(CC4CCOCC4)C[C@@H]3C2)nn1` (stereo partly drawn) [compound 28, (3aR,5s,6aS)-N-(6-(phenylsulfinyl)pyridazin-3-yl)-2-((tetrahydro-2H-pyran-4-yl)methyl)octahydrocyclopenta[c]pyrrol-5-amine], on Rat M4, the remaining activity at 30 µM was determined as 8% and the pIC50 was 6.95. Besides, on Human M4, the remaining activity at 30 µM turned out to be 5% and the pIC50 is 7.24.
For `[O-][S+](c1ccccc1)c1ccc(N[C@H]2C[C@@H]3CN(Cc4ccc5c(c4)OCO5)C[C@@H]3C2)nn1` (stereo partly drawn) [compound 30, (3aR,5s,6aS)-2-(benzo[d][1,3]dioxol-5-ylmethyl)-N-(6-(phenylsulfinyl)pyridazin-3-yl)octahydrocyclopenta[c]pyrrol-5-amine], on Rat M4, the remaining activity at 30 µM is 4% and the pIC50 was 6.71. Moreover, at Human M4, the remaining activity at 30 µM was found to be 4% and the pIC50 was 8.11.
Turning to `Cc1cc(CN2C[C@H]3C[C@H](Nc4ccc(S(=O)(=O)c5ccccc5)nn4)C[C@H]3C2)ccc1F` [compound 31, (3aR,5s,6aS)-2-(4-fluoro-3-methylbenzyl)-N-(6-(phenylsulfonyl)pyridazin-3-yl)octahydrocyclopenta[c]pyrrol-5-amine], the remaining activity at 30 µM turned out to be 3% on Rat M4 and 4% at Human M4. The pIC50 at Rat M4 is 5.94; on Human M4, 6.29.
As for `Cc1cc(CN2C[C@H]3C[C@H](Nc4ccc([S+]([O-])c5ccccc5)nn4)C[C@H]3C2)ccc1F` (stereo partly drawn) [compound 32, (3aR,5s,6aS)-2-(4-fluoro-3-methylbenzyl)-N-(6-(phenylsulfinyl)pyridazin-3-yl)octahydrocyclopenta[c]pyrrol-5-amine], on Rat M4, the remaining activity at 30 µM was found to be 3% and the pIC50 was 6.01. At Human M4, the remaining activity at 30 µM came to 3% and the pIC50 is 6.62.
`O=S(=O)(c1ccc(N[C@H]2C[C@@H]3CN(Cc4ccccn4)C[C@@H]3C2)nn1)C1CCCCC1` [compound 33, (3aR,5s,6aS)-N-(6-(cyclohexylsulfonyl)pyridazin-3-yl)-2-(pyridin-2-ylmethyl)octahydrocyclopenta[c]pyrrol-5-amine]: at Rat M4, the remaining activity at 30 µM came to 14% and the pIC50 was 5.35. Besides, on Human M4, the remaining activity at 30 µM stood at 5% and the pIC50 was 6.98.
Regarding `O=S(=O)(c1ccc(N[C@H]2C[C@@H]3CN(CC4CCOCC4)C[C@@H]3C2)nn1)C1CCCCC1` [compound 34, (3aR,5s,6aS)-N-(6-(cyclohexylsulfonyl)pyridazin-3-yl)-2-((tetrahydro-2H-pyran-4-yl)methyl)octahydrocyclopenta[c]pyrrol-5-amine], on Rat M4, the remaining activity at 30 µM is 5% and the pIC50 was 6.92. In addition, at Human M4, the remaining activity at 30 µM is 4% and the pIC50 was 8.11.
On to `Cc1cc(CN2C[C@H]3C[C@H](Nc4ccc(S(=O)(=O)C5CCCCC5)nn4)C[C@H]3C2)nn1C` [compound 35, (3aR,5s,6aS)-N-(6-(cyclohexylsulfonyl)pyridazin-3-yl)-2-((1,5-dimethyl-1H-pyrazol-3-yl)methyl)octahydrocyclopenta[c]pyrrol-5-amine], for which, at Rat M4, the remaining activity at 30 µM turned out to be 19% and the pIC50 is 5.32. On Human M4, the remaining activity at 30 µM worked out at 6% and the pIC50 is 6.74.
For the compound `CC1(C)CC(N2C[C@H]3C[C@H](Nc4ccc(S(=O)(=O)C5CCCCC5)nn4)C[C@H]3C2)CCO1` (stereo partly drawn) [compound 36, (3aR,5s,6aS)-N-(6-(cyclohexylsulfonyl)pyridazin-3-yl)-2-(2,2-dimethyltetrahydro-2H-pyran-4-yl)octahydrocyclopenta[c]pyrrol-5-amine], the remaining activity at 30 µM was 7% on Rat M4 and 5% at Human M4. Also, the pIC50 at Rat M4 is 6.34; on Human M4, 7.29.
Turning to `O=S(=O)(c1ccc(N[C@H]2C[C@@H]3CN(Cc4ccc5c(c4)OCO5)C[C@@H]3C2)nn1)C1CCCCC1` [compound 37, (3aR,5s,6aS)-2-(benzo[d][1,3]dioxol-5-ylmethyl)-N-(6-(cyclohexylsulfonyl)pyridazin-3-yl)octahydrocyclopenta[c]pyrrol-5-amine], at Rat M4, the remaining activity at 30 µM is 4% and the pIC50 is 6.80. At Human M4, the remaining activity at 30 µM came out at 4% and the pIC50 was 8.42.
